Source: patent US8299267B2, “(3-hydroxy-4-amino-butan-2-yl) -3- (2-thiazol-2-yl-pyrrolidine-1-carbonyl) benzamide derivatives and related compounds as beta-secretase inhibitors for treating” (CoMentis, Inc., priority 2007, dated 2012)

How the values were obtained:
[1] = tested on: Aβ production in Chinese hamster ovary cells that over-express human APP695 with the London and Swedish mutations; assay: Cellular Aβ IC50 determination (Aβ40 sandwich ELISA); type: cell-based; conditions: Cricetulus griseus; Aβ40 in CHO cells over-expressing human APP695, 24 h incubation
Outline: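 APP695 (London/Swedish)-overexpressing CHO cells were treated 48 h after seeding with serial dilutions from near 4 μM top concentration (0.4% DMSO) for 24 h at 37 °C. Secreted Aβ40 was quantified by sandwich ELISA relative to controls and fit to a 4-parameter IC50 model.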

[2] = molecular target: memapsin 2 (Homo sapiens, UniProt P56817); assay: Inhibition of memapsin 2 beta-secretase activity toward fluorogenic substrate FS-2; type: biochemical; conditions: memapsin 2, pH 4, 37° C., 20 minutes pre-incubation, substrate FS-2; read-out: M2Ki
Chain of memapsin 2 (P56817 46-501): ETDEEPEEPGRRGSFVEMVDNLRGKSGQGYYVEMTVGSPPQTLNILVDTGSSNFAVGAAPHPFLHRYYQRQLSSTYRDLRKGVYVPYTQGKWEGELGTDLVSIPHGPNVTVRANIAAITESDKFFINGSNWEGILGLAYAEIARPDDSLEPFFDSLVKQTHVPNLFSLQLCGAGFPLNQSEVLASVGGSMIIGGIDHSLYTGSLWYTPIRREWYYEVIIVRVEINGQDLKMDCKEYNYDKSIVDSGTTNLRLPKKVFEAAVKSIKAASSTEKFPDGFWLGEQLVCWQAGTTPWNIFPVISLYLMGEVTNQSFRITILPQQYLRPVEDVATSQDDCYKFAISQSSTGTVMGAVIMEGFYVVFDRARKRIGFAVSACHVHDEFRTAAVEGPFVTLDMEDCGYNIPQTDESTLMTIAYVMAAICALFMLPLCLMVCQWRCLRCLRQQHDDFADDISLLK
Outline: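 Memapsin 2 was preincubated with compound 20 min at pH 4, 37 °C, then reacted with fluorogenic substrate FS-2 (MCA-SEVNLDAEFK-DNP), an APP-derived Swedish-variant peptide. Inhibition was followed kinetically by fluorescence.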

[3] = molecular target: cathepsin D (Homo sapiens, UniProt P07339); assay: Inhibition of cathepsin D activity (substrate peptide ELDLAVEFWHDR, MALDI-TOF); type: biochemical; conditions: cathepsin D, pH 4.1, 37 degrees C.; read-out: CDKi
Chain of cathepsin D (P07339 65-412, species assumed): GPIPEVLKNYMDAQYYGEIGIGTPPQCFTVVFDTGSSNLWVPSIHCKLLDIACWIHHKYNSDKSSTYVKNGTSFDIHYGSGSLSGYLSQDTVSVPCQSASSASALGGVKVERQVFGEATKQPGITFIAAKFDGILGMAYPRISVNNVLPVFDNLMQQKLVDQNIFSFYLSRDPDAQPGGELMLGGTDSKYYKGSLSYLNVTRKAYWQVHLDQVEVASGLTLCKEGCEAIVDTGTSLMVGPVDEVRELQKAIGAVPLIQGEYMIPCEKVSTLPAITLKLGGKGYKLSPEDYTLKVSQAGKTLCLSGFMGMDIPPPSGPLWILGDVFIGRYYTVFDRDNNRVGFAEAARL
Procedure: [The procedure below names another target; the source lists this target under the same test.] (§1) A substrate peptide NH3-ELDLAVEFWHDR-CO2 (SEQ ID NO.: 1) was dissolved at 2 mg/mL in 10% glacial acetic acid and diluted into 0.009M NaOH to obtain μM concentration at pH 4.1. After equilibration at 37 degrees C., the reactions were initiated by the addition of an aliquot of memapsin 2. Aliquots were removed at time intervals, and combined with an equal volume of MALDI-TOF matrix (α-hydroxycinnamic acid in acetone, 20 mg/mL) and immediately spotted in duplicate onto a stainless-steel MALDI sample plate. MALDI-TOF mass spectrometry was performed on a PE Biosystems Voyager DE. The instrument was operated at 25,000 accelerating volts in positive mode with a 150 ns delay. Ions with a mass-to-charge ratio (m/z) were detected in the range of 650-2000 atomic mass units. Data were analyzed by the Voyager Data Explorer module to obtain ion intensity data for mass species of substrates and corresponding products in a given mixture. Relative product formation was calculated as the ratio of signal intensity of the product to the sum of signal intensities of both product and the corresponding substrate. Relative product formed per unit time was obtained from non-linear regression analysis of the data representing the initial 15% formation of product using the model: 1−e^−kT, where k was the relative hydrolytic rate constant and T was time in seconds. Initial rates were expressed relative to uninhibited controls and fit to a tight-binding model of competitive inhibition as above.

[4] = molecular target: T1, memapsin 1 (Homo sapiens, UniProt Q9Y5Z0); assay: Inhibition of memapsin 1 beta-secretase activity (substrate peptide ELDLAVEFWHDR, MALDI-TOF); type: biochemical; conditions: memapsin 1, pH 4.1, 37 degrees C.; read-out: M1Ki
T1 sequence (Q9Y5Z0 63-518): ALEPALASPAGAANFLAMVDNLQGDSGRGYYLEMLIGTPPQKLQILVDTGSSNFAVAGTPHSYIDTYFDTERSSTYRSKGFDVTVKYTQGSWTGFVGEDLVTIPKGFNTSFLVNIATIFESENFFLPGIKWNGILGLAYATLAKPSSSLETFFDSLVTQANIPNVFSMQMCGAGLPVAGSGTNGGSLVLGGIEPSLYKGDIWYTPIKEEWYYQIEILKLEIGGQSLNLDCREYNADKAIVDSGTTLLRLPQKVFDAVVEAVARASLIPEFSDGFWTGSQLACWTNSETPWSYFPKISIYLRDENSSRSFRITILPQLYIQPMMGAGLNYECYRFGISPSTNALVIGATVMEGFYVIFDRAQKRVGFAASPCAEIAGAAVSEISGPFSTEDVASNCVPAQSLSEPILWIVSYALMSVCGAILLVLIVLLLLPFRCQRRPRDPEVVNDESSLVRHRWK
Procedure: [The procedure below names another target; the source lists this target under the same test.] as §1

Row | Structure (SMILES) | IC50 [1] [nM] | Ki [2] [nM] | Ki [3] [nM] | Ki [4] [nM]
1 | Cc1cc(C(=O)N[C@@H](Cc2ccccc2)[C@H](O)CNCc2cccc(C(F)(F)F)c2)cc(C(=O)N2CCC[C@@H]2c2nc(C)co2)c1 [Compound 55, N-((2S,3R)-3-hydroxy-1-phenyl-4-(3-(trifluoromethyl)benzylamino)butan-2-yl)-3-methyl-5-((R)-2-(4-methyloxazol-2-yl)pyrrolidine-1-carbonyl)benzamide] | < 300 | < 100 | – | –
2 | Cc1csc([C@H]2CCCN2C(=O)c2cc(C(=O)N[C@@H](Cc3ccccc3)[C@H](O)CNCc3cccc(C(F)(F)F)c3)cc(-c3ncco3)c2)n1 [Compound 28, N-((2S,3R)-3-hydroxy-1-phenyl-4-(3-(trifluoromethyl)benzylamino)butan-2-yl)-3-((R)-2-(4-methylthiazol-2-yl)pyrrolidine-1-carbonyl)-5-(oxazol-2-yl)benzamide] | < 300 | < 100 | – | –
3 | Cc1coc([C@H]2CCCN2C(=O)c2cccc(C(=O)N[C@@H](Cc3ccccc3)[C@H](O)CNCc3cncc(C(C)(C)F)c3)c2)n1 [Compound 39, N-((2S,3R)-4-((5-(2-fluoropropan-2-yl)pyridin-3-yl)methylamino)-3-hydroxy-1-phenylbutan-2-yl)-3-((R)-2-(4-methyloxazol-2-yl)pyrrolidine-1-carbonyl)benzamide] | < 300 | < 100 | – | –
4 | COc1cc(C(=O)N[C@@H](Cc2ccccc2)[C@H](O)CNCc2cncc(C(C)C)c2)cc(C(=O)N2CCC[C@@H]2c2nc(C)co2)c1 [Compound 89, N-((2S,3R)-3-hydroxy-4-((5-isopropylpyridin-3-yl)methylamino)-1-phenylbutan-2-yl)-3-methoxy-5-((R)-2-(4-methyloxazol-2-yl)pyrrolidine-1-carbonyl)benzamide] | < 300 | < 100 | – | –
5 | Cc1csc([C@H]2CCCN2C(=O)c2cccc(C(=O)N[C@@H](Cc3ccccc3)[C@H](O)CNCc3cccc(N(C)C)c3)c2)n1 [Compound 69, N-((2S,3R)-4-(3-(dimethylamino)benzylamino)-3-hydroxy-1-phenylbutan-2-yl)-3-((R)-2-(4-methylthiazol-2-yl)pyrrolidine-1-carbonyl)benzamide] | < 300 | < 100 | – | –
6 | Cc1coc([C@H]2CCCN2C(=O)c2cc(CF)cc(C(=O)N[C@@H](Cc3ccccc3)[C@H](O)CNCc3cccc(C(C)(C)C)c3)c2)n1 [Compound 95, N-((2S,3R)-4-(3-tert-butylbenzylamino)-3-hydroxy-1-phenylbutan-2-yl)-3-(fluoromethyl)-5-((R)-2-(4-methyloxazol-2-yl)pyrrolidine-1-carbonyl)benzamide] | < 300 | < 100 | – | –
7 | Cc1csc([C@H]2CCCN2C(=O)c2cccc(C(=O)N[C@@H](Cc3ccccc3)[C@H](O)CNCc3cccc(Cl)c3)c2)n1 [Compound 17, N-((2S,3R)-4-(3-chlorobenzylamino)-3-hydroxy-1-phenylbutan-2-yl)-3-((R)-2-(4-methylthiazol-2-yl)pyrrolidine-1-carbonyl)benzamide] | < 300 | < 100 | – | –
8 | Cc1csc([C@H]2CCCN2C(=O)c2cc(C(=O)N[C@@H](Cc3ccccc3)[C@H](O)CNCc3cccc(C(F)(F)F)c3)cc(-c3cnccn3)c2)n1 [Compound 49, N-((2S,3R)-3-hydroxy-1-phenyl-4-(3-(trifluoromethyl)benzylamino)butan-2-yl)-3-((R)-2-(4-methylthiazol-2-yl)pyrrolidine-1-carbonyl)-5-(pyrazin-2-yl)benzamide] | < 300 | < 100 | – | –
9 | Cc1cc(C(=O)N[C@@H](Cc2ccccc2)[C@H](O)CNCc2cncc(C(C)C)c2)cc(C(=O)N2CCC[C@@H]2c2nc(C)co2)c1 [Compound 56, N-((2S,3R)-3-hydroxy-4-((5-isopropylpyridin-3-yl)methylamino)-1-phenylbutan-2-yl)-3-methyl-5-((R)-2-(4-methyloxazol-2-yl)pyrrolidine-1-carbonyl)benzamide] | < 300 | < 100 | – | –
10 | Cc1csc([C@H]2CCCN2C(=O)c2cc(C(=O)N[C@@H](Cc3ccccc3)[C@H](O)CNCc3cccc(C(F)(F)F)c3)cc(N(C)C)c2)n1 [Compound 30, 3-(dimethylamino)-N-((2S,3R)-3-hydroxy-1-phenyl-4-(3-(trifluoromethyl)benzylamino)butan-2-yl)-5-((R)-2-(4-methylthiazol-2-yl)pyrrolidine-1-carbonyl)benzamide] | < 300 | < 100 | – | –
11 | COC[C@H]1CCCN1C(=O)c1cc(C)cc(C(=O)N[C@@H](Cc2ccccc2)[C@H](O)CNCc2cncc(C(C)C)c2)c1 [Compound 23, N-((2S,3R)-3-hydroxy-4-((5-isopropylpyridin-3-yl)methylamino)-1-phenylbutan-2-yl)-3-((R)-2-(methoxymethyl)pyrrolidine-1-carbonyl)-5-methylbenzamide] | < 300 | < 100 | – | –

Further lines, results first:

Row | IC50 [1] [nM] | Ki [2] [nM] | Ki [3] [nM] | Ki [4] [nM] | Structure (SMILES)
12 | < 300 | < 100 | > 501 | 301 to 500 | Cc1csc([C@H]2CCCN2C(=O)c2cccc(C(=O)N[C@@H](Cc3ccccc3)[C@H](O)CNCc3cccc(C(F)(F)F)c3)c2)n1 [Compound 9, N-((2S,3R)-3-hydroxy-1-phenyl-4-(3-(trifluoromethyl)benzylamino)butan-2-yl)-3-((R)-2-(4-methylthiazol-2-yl)pyrrolidine-1-carbonyl)benzamide]
13 | < 300 | < 100 | < 300 | 301 to 500 | COc1cccc(CNC[C@@H](O)[C@H](Cc2ccccc2)NC(=O)c2cccc(C(=O)N3COC[C@@H]3c3nc(C)cs3)c2)c1 [Compound 15, N-((2S,3R)-3-hydroxy-4-(3-methoxybenzylamino)-1-phenylbutan-2-yl)-3-((R)-4-(4-methylthiazol-2-yl)oxazolidine-3-carbonyl)benzamide]
14 | < 300 | < 100 | 301 to 500 | > 501 | COc1cccc(CNC[C@@H](O)[C@H](Cc2ccccc2)NC(=O)c2cc(C)cc(C(=O)N3CCC[C@@H]3c3nc(C)cs3)c2)c1 [Compound 6, N-((2S,3R)-3-hydroxy-4-(3-methoxybenzylamino)-1-phenylbutan-2-yl)-3-methyl-5-((R)-2-(4-methylthiazol-2-yl)pyrrolidine-1-carbonyl)benzamide]
15 | < 300 | < 100 | 301 to 500 | < 300 | Cc1csc([C@H]2CCCN2C(=O)c2cccc(C(=O)N[C@@H](Cc3ccccc3)[C@H](O)CNCc3cncc(C(C)C)c3)c2)n1 [Compound 2, N-((2S,3R)-3-hydroxy-4-((5-isopropylpyridin-3-yl)methylamino)-1-phenylbutan-2-yl)-3-((R)-2-(4-methylthiazol-2-yl)pyrrolidine-1-carbonyl)benzamide]
16 | < 300 | < 100 | – | – | COc1cccc(CNC[C@@H](O)[C@H](Cc2ccccc2)NC(=O)c2cccc(C(=O)N3CSC[C@@H]3c3nc(C)cs3)c2)c1 [Compound 8, N-((2S,3R)-3-hydroxy-4-(3-methoxybenzylamino)-1-phenylbutan-2-yl)-3-((R)-4-(4-methylthiazol-2-yl)thiazolidine-3-carbonyl)benzamide]
17 | < 300 | < 100 | – | – | Cc1csc([C@H]2CCCN2C(=O)c2cncc(C(=O)N[C@@H](Cc3ccccc3)[C@H](O)CNCc3cncc(C(C)(C)F)c3)c2)n1 [Compound 44, N-((2S,3R)-4-((5-(2-fluoropropan-2-yl)pyridin-3-yl)methylamino)-3-hydroxy-1-phenylbutan-2-yl)-5-((R)-2-(4-methylthiazol-2-yl)pyrrolidine-1-carbonyl)nicotinamide]
